Data on 1 compound can be found in patent publication US11890285B2, “Combination therapies” (Mirati Therapeutics, Inc., priority 2019, dated 2024).

“And” between values parts separate entries of the source, which are not always exact repeats. Equal values may be shown once.

Test [1] deals with CT26.WT KRas G12C E3 clone tumors. The experiment in a line: Tumor volumes of CT26.WT KRas G12C E3 clone tumor bearing mice, single agents and combination. Format: in vivo, BALBc mice. The method, then: (§1) BALBc mice were inoculated in the right hind flank with 1×10^6 CT26.WT KRas G12C E3 cells harboring the KRas G12C mutation, and tumor volumes were measured using a caliper every two-three days and tumor volumes were calculated by the formula: […].
When tumor volumes reached between 200-400 mm^3 in size (Study Day 0), the mice were divided into four groups of 5 mice each. The first group was daily administered vehicle (10% Captisol in 50 mM citrate buffer pH 5.0) through Study Day 15 and also administered i.p. vehicle (BioXcel diluent) on Study Days 1, 4 and 7. The second group was […] a 10 mg/kg i.p. dose of the murine anti-PD-1 antibody (F26, BioXcel) at Days 1, 4 and 7.
At Study Day 39, four tumor-free mice from the combination group were rechallenged 1×10^6 CT26.WT KRas G12C E3 cells in the opposite left flank and mice were monitored for tumor growth for a period of twenty four days to determine whether a durable, adaptive immune response was observed.

Test [2] has the same test system. The experiment in a line: Repeat study: tumor volumes of CT26.WT KRas G12C E3 clone tumor bearing mice, 10 animals per group. In kind it is in vivo, BALBc mice. The settings on record: for Tumor volume: individual mice. How it is done: as §1
In the second study the number of treated mice was increased from 5 animals per group to 10 animals per group.
When tumor volumes reach between 200-400 mm^3 in size (Study Day 0), the mice were divided into four groups of 10 mice each. The first group was daily administered vehicle (10% Captisol in 50 mM citrate buffer pH 5.0) through Study Day 10 and also administered i.p. vehicle (BioXcel diluent) on Study Days 1, 4 and 7. The second group was daily administered a 10 mg/kg i.p. dose of the murine anti-PD-1 antibody (F26, BioXcel) at Days 1, 4 and 7.

For `C=C(F)C(=O)N1CCN(c2nc(OC[C@@H]3CCCN3C)nc3c2CCN(c2cccc4cccc(Cl)c24)C3)C[C@@H]1CC#N` [Example 478], the “mice achieving a complete response” value in test [1] (5 mice per group) was “all five treated mice achieving a complete response after nine days of administration”; in test [2] (10 mice per group), “all ten treated mice achieving a complete response”. Besides, the “tumor regrowth / time without a detectable tumor” value in test [1] (Example 478 stopped at Study Day 29) is listed as “eventually tumor growth was detected at the original site of implantation in all five mice”; in test [2] (Example 478 stopped at Study Day 25) it was “eventually tumor growth was detected in 6 out of 9 mice at the original site of implantation”. Moreover, the Tumor volume is 0 mm^3 (9×) and 4 mm^3 in test [2] (Study Day 14, original implantation site (R), Example 478 100 mg/kg, F26 10 mg/kg i.p., listed as Example 47); 0 mm^3 (8×) and 32 mm^3 in test [2] (Study Day 17, original implantation site (R), Example 478 100 mg/kg, F26 10 mg/kg i.p., listed as Example 47); 51 mm^3 and 0 mm^3 (5×) and 875 mm^3 and 32 mm^3 and 371 mm^3 and 63 mm^3 in test [2] (Study Day 19, original implantation site (R), Example 478 100 mg/kg, F26 10 mg/kg i.p., listed as Example 47); 268 mm^3 and 0 mm^3 (5×) and 1320 mm^3 and 139 mm^3 and 762 mm^3 and 274 mm^3 in test [2] (Study Day 21, original implantation site (R), Example 478 100 mg/kg, F26 10 mg/kg i.p., listed as Example 47); 877 mm^3 and 0 mm^3 (5×) and 2470 mm^3 and 588 mm^3 and 1498 mm^3 and 291 mm^3 in test [2] (Study Day 24, original implantation site (R), Example 478 100 mg/kg, F26 10 mg/kg i.p., listed as Example 47); 1237 mm^3 and 0 mm^3 (4×) and 923 mm^3 and 1699 mm^3 and 14 mm^3 in test [2] (Study Day 26, original implantation site (R), Example 478 100 mg/kg, F26 10 mg/kg i.p., listed as Example 47). The Tumor volume was 1371 mm^3 and 0 mm^3 (4×) and 1056 mm^3 and 2035 mm^3 and 14 mm^3 in test [2] (Study Day 28, original implantation site (R), Example 478 100 mg/kg, F26 10 mg/kg i.p., listed as Example 47); 2334 mm^3 and 0R 0L mm^3 (4×) and 2113 mm^3 and 161 mm^3 in test [2] (Study Day 31, original implantation site (R), Example 478 100 mg/kg, F26 10 mg/kg i.p., listed as Example 47); 0R 0L mm^3 in test [2] (Study Day 31, site of re-challenge (L)); 0R 0L mm^3 and 289 mm^3 and 63 mm^3 and 32 mm^3 and 4 mm^3 in test [2] (Study Day 33, original implantation site (R), Example 478 100 mg/kg, F26 10 mg/kg i.p., listed as Example 47); 0R 0L mm^3 and 0 mm^3 (3×) in test [2] (Study Day 33, site of re-challenge (L), listed as Example 47); 0R 0L mm^3 and 425 mm^3 and 318 mm^3 and 124 mm^3 and 63 mm^3 in test [2] (Study Day 38, original implantation site (R), Example 478 100 mg/kg, F26 10 mg/kg i.p., listed as Example 47). Moreover, the Tumor volume in test [2] (Study Day 38, site of re-challenge (L), listed as Example 47) was 0R 0L mm^3 and 0 mm^3 (3×); in test [2] (Study Day 40, original implantation site (R), Example 478 100 mg/kg, F26 10 mg/kg i.p., listed as Example 47) it was 0R 0L mm^3 and 464 mm^3 and 511 mm^3; in test [2] (Study Day 40, site of re-challenge (L), listed as Example 47) it was 0R 0L mm^3 and 0 mm^3 (2×).
